What all share (assay): kinome screen (33PanQinase)
What all share (format): biochemical

One assay addresses T1, CAMK2A (Homo sapiens, UniProt Q9UQM7).
T1 construct: purchased Reaction Biology Europe GmbH (formerly ProQinase)
As to the method:
(§1) The Kinome Screening was performed by Reaction Biology Europe GmbH (http://reactionbiology.com; Freiburg i. Br., Germany).

The target of another assay is T2, EPHB2 (Homo sapiens, UniProt P29323).
T2 construct: purchased Reaction Biology Europe GmbH (formerly ProQinase)
T2 sequence (P29323 19-1055): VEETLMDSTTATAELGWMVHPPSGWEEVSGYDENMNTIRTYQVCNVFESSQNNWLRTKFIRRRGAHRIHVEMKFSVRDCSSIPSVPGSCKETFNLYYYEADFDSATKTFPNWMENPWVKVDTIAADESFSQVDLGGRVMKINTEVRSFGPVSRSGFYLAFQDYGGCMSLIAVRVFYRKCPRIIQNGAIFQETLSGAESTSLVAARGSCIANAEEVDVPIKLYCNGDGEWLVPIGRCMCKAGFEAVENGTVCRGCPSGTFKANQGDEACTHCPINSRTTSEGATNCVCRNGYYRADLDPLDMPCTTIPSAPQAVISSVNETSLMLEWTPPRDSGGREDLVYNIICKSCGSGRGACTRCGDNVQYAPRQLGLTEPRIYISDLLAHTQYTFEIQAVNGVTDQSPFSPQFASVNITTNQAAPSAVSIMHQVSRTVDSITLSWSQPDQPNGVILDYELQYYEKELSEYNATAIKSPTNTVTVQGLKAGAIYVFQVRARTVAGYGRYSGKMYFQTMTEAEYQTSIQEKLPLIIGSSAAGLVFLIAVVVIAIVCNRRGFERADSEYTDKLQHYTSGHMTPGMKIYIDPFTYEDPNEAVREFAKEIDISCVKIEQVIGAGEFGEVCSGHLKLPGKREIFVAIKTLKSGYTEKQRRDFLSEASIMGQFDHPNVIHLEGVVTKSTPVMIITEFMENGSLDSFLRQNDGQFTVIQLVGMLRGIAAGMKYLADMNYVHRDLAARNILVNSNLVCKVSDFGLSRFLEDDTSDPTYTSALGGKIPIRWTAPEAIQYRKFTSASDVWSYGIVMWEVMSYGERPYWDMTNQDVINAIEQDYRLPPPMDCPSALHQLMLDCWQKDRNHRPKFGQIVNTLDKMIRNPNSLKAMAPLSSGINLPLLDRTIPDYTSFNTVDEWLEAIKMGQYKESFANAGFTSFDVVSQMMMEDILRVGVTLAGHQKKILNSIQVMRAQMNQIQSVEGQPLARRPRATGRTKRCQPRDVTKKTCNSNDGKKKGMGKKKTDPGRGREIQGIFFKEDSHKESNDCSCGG
As to the method: as §1

The next assay concerns the target T3, FER (Homo sapiens, UniProt P16591).
T3 construct: purchased Reaction Biology Europe GmbH (formerly ProQinase)
As to the method:
as §1

A further assay deals with T4, GRK2 (Homo sapiens, UniProt P25098).
T4 construct: purchased Reaction Biology Europe GmbH (formerly ProQinase)
T4 sequence (P25098 1-689): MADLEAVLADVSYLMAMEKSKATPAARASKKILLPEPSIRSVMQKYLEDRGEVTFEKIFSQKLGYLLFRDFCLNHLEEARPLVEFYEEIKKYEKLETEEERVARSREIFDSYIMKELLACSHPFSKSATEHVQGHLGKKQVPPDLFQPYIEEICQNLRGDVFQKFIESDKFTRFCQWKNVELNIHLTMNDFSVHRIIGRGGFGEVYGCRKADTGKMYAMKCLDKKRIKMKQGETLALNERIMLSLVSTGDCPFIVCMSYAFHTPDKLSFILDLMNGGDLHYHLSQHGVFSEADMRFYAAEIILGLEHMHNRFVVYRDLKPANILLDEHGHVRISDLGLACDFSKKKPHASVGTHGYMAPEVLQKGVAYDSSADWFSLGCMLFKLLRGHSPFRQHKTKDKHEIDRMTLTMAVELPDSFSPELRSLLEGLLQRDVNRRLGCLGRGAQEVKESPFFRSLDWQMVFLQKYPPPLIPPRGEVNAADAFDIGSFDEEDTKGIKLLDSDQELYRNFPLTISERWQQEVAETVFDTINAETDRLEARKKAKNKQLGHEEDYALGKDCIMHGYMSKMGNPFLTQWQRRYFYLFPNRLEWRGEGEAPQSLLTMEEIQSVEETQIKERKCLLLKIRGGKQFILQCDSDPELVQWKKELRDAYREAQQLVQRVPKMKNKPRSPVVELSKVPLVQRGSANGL
As to the method: as §1

The next assay addresses T5, ULK2 (Homo sapiens, UniProt Q8IYT8).
T5 construct: purchased Reaction Biology Europe GmbH (formerly ProQinase)
T5 sequence (Q8IYT8 1-1036): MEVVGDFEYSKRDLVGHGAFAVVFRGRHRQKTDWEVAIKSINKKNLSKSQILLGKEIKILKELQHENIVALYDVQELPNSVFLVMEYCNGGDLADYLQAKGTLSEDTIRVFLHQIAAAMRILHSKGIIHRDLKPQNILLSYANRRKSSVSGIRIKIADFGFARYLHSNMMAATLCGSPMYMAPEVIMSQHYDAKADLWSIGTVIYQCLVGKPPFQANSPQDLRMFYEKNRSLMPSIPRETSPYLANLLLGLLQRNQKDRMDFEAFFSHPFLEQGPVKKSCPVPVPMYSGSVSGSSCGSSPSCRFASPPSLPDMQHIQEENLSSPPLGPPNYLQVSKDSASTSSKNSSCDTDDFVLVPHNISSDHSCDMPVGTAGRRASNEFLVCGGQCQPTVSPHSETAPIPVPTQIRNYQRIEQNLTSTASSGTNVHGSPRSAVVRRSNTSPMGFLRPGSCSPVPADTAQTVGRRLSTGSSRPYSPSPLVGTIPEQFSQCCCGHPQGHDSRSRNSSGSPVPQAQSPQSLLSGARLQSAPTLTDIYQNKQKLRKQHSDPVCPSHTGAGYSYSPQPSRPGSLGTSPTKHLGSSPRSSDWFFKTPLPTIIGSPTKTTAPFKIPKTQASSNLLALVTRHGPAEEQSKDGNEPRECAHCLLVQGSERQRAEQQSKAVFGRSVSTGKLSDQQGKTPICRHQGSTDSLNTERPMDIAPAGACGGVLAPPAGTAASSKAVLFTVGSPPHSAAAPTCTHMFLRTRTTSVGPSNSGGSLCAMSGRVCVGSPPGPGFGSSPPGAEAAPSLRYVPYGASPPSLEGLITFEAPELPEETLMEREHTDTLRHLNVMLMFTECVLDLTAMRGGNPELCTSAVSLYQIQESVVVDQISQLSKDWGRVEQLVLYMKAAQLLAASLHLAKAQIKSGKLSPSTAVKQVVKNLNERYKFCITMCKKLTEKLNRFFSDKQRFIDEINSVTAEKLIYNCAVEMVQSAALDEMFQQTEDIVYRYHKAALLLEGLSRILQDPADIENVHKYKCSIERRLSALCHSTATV
As to the method: as §1

SMILES strings stand for the structures.

T1 sequence (Q9UQM7 whole entry): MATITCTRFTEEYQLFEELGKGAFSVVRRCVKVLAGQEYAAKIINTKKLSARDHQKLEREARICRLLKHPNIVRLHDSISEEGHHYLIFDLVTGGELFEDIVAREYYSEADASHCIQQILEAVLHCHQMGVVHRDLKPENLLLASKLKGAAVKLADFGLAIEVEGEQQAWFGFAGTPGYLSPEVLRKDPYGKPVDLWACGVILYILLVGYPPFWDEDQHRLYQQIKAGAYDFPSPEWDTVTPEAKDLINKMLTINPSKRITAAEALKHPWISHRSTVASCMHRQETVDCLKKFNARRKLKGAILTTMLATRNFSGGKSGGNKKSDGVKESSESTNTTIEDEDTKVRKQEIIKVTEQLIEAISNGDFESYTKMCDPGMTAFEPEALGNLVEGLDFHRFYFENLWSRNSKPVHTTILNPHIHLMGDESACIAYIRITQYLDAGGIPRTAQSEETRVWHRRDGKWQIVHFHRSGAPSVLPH
T3 sequence (P16591 whole entry): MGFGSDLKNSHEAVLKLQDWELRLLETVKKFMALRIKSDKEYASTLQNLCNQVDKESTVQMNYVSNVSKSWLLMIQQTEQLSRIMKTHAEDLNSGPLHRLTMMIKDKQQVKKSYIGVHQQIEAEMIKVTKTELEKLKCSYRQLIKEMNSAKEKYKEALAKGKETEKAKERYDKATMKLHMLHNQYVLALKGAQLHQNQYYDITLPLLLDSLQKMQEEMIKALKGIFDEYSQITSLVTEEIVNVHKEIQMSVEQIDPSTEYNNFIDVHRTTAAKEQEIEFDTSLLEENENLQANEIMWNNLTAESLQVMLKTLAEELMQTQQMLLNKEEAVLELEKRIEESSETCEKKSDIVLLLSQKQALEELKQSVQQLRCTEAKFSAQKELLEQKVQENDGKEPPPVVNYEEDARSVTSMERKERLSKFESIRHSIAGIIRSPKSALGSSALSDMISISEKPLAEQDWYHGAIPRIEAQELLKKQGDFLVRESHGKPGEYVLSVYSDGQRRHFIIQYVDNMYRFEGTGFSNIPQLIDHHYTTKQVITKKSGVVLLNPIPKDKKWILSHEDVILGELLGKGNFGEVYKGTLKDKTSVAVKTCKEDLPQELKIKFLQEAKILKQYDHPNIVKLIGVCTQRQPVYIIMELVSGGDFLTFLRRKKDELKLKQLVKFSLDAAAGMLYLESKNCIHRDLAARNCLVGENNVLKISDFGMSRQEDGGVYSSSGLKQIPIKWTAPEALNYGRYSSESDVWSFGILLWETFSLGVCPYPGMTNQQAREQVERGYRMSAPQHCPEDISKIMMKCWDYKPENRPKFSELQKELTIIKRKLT

Turning to `c1ccc(CNc2cc(-c3c[nH]c4ncccc34)ccn2)cc1` [meriolin 36], the residual kinase activity at CAMK2A (0.3 µM) was 26 % of control; on CAMK2A (3 µM) it was 2 % of control; on EPHB2 (0.3 µM), 85 % of control; at EPHB2 (3 µM) it was 47 % of control; on FER (0.3 µM), 66 % of control; at FER (3 µM), 22 % of control. In addition, the residual kinase activity at GRK2 (0.3 µM) is 99 % of control; on GRK2 (3 µM), 51 % of control; on ULK2 (0.3 µM) it was 82 % of control; on ULK2 (3 µM), 45 % of control.
`COc1ccnc2[nH]cc(-c3cc(N)nc(N)c3)c12` [meriolin 16]: the residual kinase activity on CAMK2A (0.03 µM) was 103 % of control; on CAMK2A (0.3 µM), 81 % of control; on EPHB2 (0.03 µM), 97 % of control; at EPHB2 (0.3 µM) it was 95 % of control; on FER (0.03 µM) it was 63 % of control; at FER (0.3 µM) it was 58 % of control. Moreover, the residual kinase activity is on record as 96 % of control on GRK2 (0.03 µM), 106 % of control on GRK2 (0.3 µM), 96 % of control on ULK2 (0.03 µM) and 54 % of control on ULK2 (0.3 µM).

(Values after paper PMC11167047 (Cell Death Discovery, 2024).)
